# Read-outs that look alike come from different tables or passages of the source.
# Tests used:
# [1] = 4 h; cited from earlier work
# [2] = 24 h; cited from earlier work
smiles,measurement,setting,value
"CC(C)C[C@H](NC(=O)[C@H](CC(=O)O)NC(=O)CNC(=O)[C@H](CCCNC(=N)N)NC(=O)[C@H](CC(C)C)NC(=O)[C@H](CC(N)=O)NC(=O)[C@@H]1CCCN1C(=O)[C@@H](NC(=O)[C@H](C)NC(=O)[C@@H](N)CC(N)=O)C(C)C)C(=O)N[C@@H](CCC(N)=O)C(=O)N[C@H](C(=O)N[C@@H](CC(C)C)C(=O)N[C@@H](C)C(=O)N[C@@H](CCC(N)=O)C(=O)N[C@@H](CCCCN)C(=O)N[C@H](C(=O)N[C@@H](C)C(=O)N[C@@H](CCCNC(=N)N)C(=O)N[C@H](C(=O)O)[C@@H](C)O)C(C)C)C(C)C [Compound 13, H2N-^1NAVPNLRGDLQVLAQKVAR^20T-OH]",peptide remaining intact in mouse serum,[1],50%
same,peptide remaining intact in rat serum,24 h,almost completely degraded
same,peptide remaining intact in rat serum,48 h,undetected
same,peptide remaining in human plasma,[2],> 75%

# Reference: PMC9316855 (Molecules, 2022)
